{"source": "patent US12060388B2", "about": "“Cell-penetrating peptides and methods of use thereof” (priority 2018, dated 2024)", "key": {"HPV18 PsV": {"test_system": "HPV18 PsV", "test": "Peptide inhibition of HPV18 PsV infection of HeLa-S3 cells, flow cytometry for HcRed", "assay_type": "cell-based", "conditions": "14 μM peptide, MOI of one, 48 h.p.i.", "description": "FIG. 18A (top) depicts sequences of L2 peptides. […] Amino acid substitutions in the CPP or RBS mutant peptides are shown in orange and blue, respectively. Bottom: RBS and flanking sequences of indicated HPV L2 proteins or DMT1-II. FIG. 18B depicts an inhibitory dose-response curve for P16/16 peptide. 5×10^4 HeLa-S3 in 24-well plates were pretreated with various concentrations of P16/16 for one hour prior to infection with HPV pseudovirus (PsV) at multiplicity of infection (MOI) of 1. Peptide was left in the medium for the duration of the experiment. Cells were assessed by flow cytometry to determine the fraction of cells expressing reporter protein HcRed at 48 hours post-infection (h.p.i.). […] Forty-eight h.p.i., cells were assessed by flow cytometry to determine fraction of cells expressing reporter protein HcRed. […] HaCaT keratinocytes were infected at MOI of 1 with HPV16 PsV in the presence and absence of 14 μM P16/16, and infectivity was assessed 48 h.p.i. by flow cytometry for HcRed fluorescence. […] Successful infection by HPV16 and HPV16 PsV was assessed by quantitative reverse transcription-PCR (qRT-PCR) for expression of HPV early region and HcRed mRNA, respectively, and normalized to infection by the cognate virus in the absence of peptide. Background signal determined with non-cognate primers was <0.01%. […]"}, "retromer (Vps35)": {"biological_target": "T1, retromer (Vps35) (Homo sapiens, UniProt O75436+Q96QK1)", "T1 construct": "endogenous in cells; host or cells: HeLa S3 lysate (RIPA-MOPS buffer)", "test": "Biotinylated peptide pull-down from HeLa S3 lysate, blot for Vps35", "assay_type": "binding", "conditions": "streptavidin pull-down", "protocol": "For peptide pull-down experiments, N-terminal biotinylated L2 peptides (sequences shown in FIG. 2A) were purchased from ABClonal Science (Woburn, MA) at >95% purity. L2 wild-type was dissolved initially in 30% acetic acid and DMSO (˜70 μl each), and then dissolved in sterile deionized water with 0.01% sodium azide. L2-6A, L2-3R and L2-DM were initially solubilized in a small amount of DMSO (˜70-80 μl) and then dissolved in sterile deionized water with 0.01% sodium azide. Peptide stocks (5 mg/ml) were aliquoted and stored at −20° C. HeLa S3 cells plated in six-well plates were lysed at ˜80% confluency with 500 μl RIPA-MOPS buffer (20 mM morpholinepropanesulfonic acid [pH 7.0], 150 mM NaCl, 1% Nonidet P-40, 1 mM EDTA, 1% deoxycholic acid, 0.1% sodium dodecyl sulfate [SDS]) supplemented with protease inhibitors (1×HALT protease and phosphatase inhibitor cocktail (Thermo Scientific, Waltham, MA; #78443)). The lysate was centrifuged at 14,000 rpm for 20 min, and the supernatant was incubated with 10 μg of a biotinylated peptide for two h at 4° C. Fifty μl of streptavidin agarose beads slurry (Pierce, Rockford, IL; #20349) was added, and the mixture was gently rocked for 45 min at 4° C. […] Samples were analyzed by SDS-PAGE and immunoblotting with antibody recognizing Vps35 (Abcam, Cambridge, MA; ab57632)."}, "[1]": {"test_system": "retromer subunit VPS35 / HPV16 L1", "test": "Proximity ligation assay for HPV16 L1 and VPS35 in peptide-treated infected cells", "assay_type": "cell-based", "conditions": "14 μM, MOI of 200, eight h.p.i.", "protocol": "FIG. 19A depicts uninfected HeLa cells were incubated with 14 μM bP16/16 or bPDM/16 for three hours (“b” refers to peptides with an N-terminal biotin moiety). Cells were then fixed, permeabilized, and stained with AlexaFluor-streptavidin (green) and with anti-VPS35 (red). Overlapping signal is pseudocolored yellow. Nuclei were stained blue with DAPI. Mander's correlation coefficients for overlap between streptavidin and VPS35 staining are shown at right, with each spot representing an individual cell. Approximately 100 cells were analyzed for each condition. […] Images were processed by Fiji and quantitatively analyzed by BlobFinder software to measure total fluorescence intensity per cell in each sample. […]\nFor the proximity ligation assay, after an hour incubation with peptides, HeLa-S3 cells were infected with wild-type PSV at MOI of 200 or mutant PsV containing the same number of reporter plasmid genomes. […] The nuclei were stained by using Abcam fluorescence mounting medium with DAPI and images were acquired by a Leica SP5 inverted fluorescence microscope. […] The images were processed by Fiji and quantitatively analyzed by BlobFinder software to measure total fluorescence intensity in each sample. The average fluorescence intensity per cell in each sample was normalized to the control sample as indicated in each experiment. […]"}}}
{"smiles": "CC[C@H](C)[C@H](NC(=O)[C@@H](NC(=O)[C@H](Cc1ccc(O)cc1)NC(=O)[C@H](CCC(N)=O)NC(=O)[C@@H]1CCCN1C(=O)[C@H](CO)NC(=O)[C@@H](N)CS)[C@@H](C)O)C(=O)N[C@H](C(=O)N[C@@H](C)C(=O)N[C@@H](CC(=O)O)C(=O)N[C@@H](C)C(=O)NCC(=O)N[C@@H](CC(=O)O)C(=O)N[C@@H](Cc1ccccc1)C(=O)N[C@@H](Cc1ccc(O)cc1)C(=O)N[C@@H](CC(C)C)C(=O)N[C@@H](Cc1c[nH]cn1)C(=O)N1CCC[C@H]1C(=O)N[C@@H](CO)C(=O)N[C@@H](Cc1ccc(O)cc1)C(=O)N[C@@H](Cc1ccc(O)cc1)C(=O)N[C@@H](CCSC)C(=O)N[C@@H](CC(C)C)C(=O)N[C@@H](CCCNC(=N)N)C(=O)N[C@@H](CCCCN)C(=O)N[C@@H](CCCNC(=N)N)C(=O)N[C@@H](CCCNC(=N)N)C(=O)N[C@@H](CCCCN)C(=O)N[C@@H](CCCNC(=N)N)C(=O)O)[C@@H](C)CC", "note": "[P16/16]", "values": [{"measurement": "inhibition of HPV18 PsV infection", "setting": "HPV18 PsV", "result": "potently inhibited infection"}, {"measurement": "retromer binding of L2 peptide in vitro", "setting": "retromer (Vps35)", "result": "competent for retromer binding in vitro"}, {"measurement": "interaction of retromer with HPV (VPS35/L1 PLA)", "setting": "[1]", "result": "inhibited the interaction of retromer with HPV"}]}
